Measurements taken from patent US20140004209A1, “AUTOPHAGY INDUCER AND INHIBITOR COMBINATION THERAPY FOR THE TREATMENT OF NEOPLASMS” (GENENTECH, INC., priority 2010, published 2014).
Entries after “also recorded” stand apart in the source; their conditions may differ.

Columns and labels:
[1] = tested on: SKBR3Breast cancer cell line; experiment: Autophagy (Acridine Orange) and apoptosis (AnnV/PI) induction with CQ; assay type: cell-based
From the text: (§1) FIGS. 32A-B and 34A-B depict data showing correlation between Autophagy induction and apoptosis induction when each compound is combined with CQ at 24 hrs after the given compound treatment measured by Acridine Orange staining in 537MEL melanoma cell line and SKBR3Breast cancer cell line, respectively. Control was DMSO.
(§2) FIGS. 33A-G and 35A-G show dose response curve of apoptosis induction in 537MEL melanoma and SKBR3Breast cancer cells, respectively, treated with the indicated compound alone or with 10 μM CQ, measured by Annezin V (AnnV) and Propidium iodide (PI) staining.

[2] = tested on: 537MEL melanoma cell line; experiment: as above; assay type: cell-based
From the text: as §1, §2

PC3 cells [3] = experiment: Autophagy markers in PC3 cells (EM AVs, GFP-LC3, LC3-II/LC3-I, MDC, AO); assay type: cell-based, human
Experimental: (§3) Western blot analysis, immunofluorescence, 1HC and TUNEL assay: For Western blot analysis, total protein lysates were subjected to SDS-PAGE and transferred to nitrocellulose. […] Detection and quantification were performed using an Odyssey infrared scanner (LICOR) using the manufacturer's software. For immunofluorescence staining, cells were fixed in 3% paraformaldehyde and permeabilized with 0.01% digitonin in PBS, followed by a rabbit polyclonal anti-LC3 (Abgent) primary antibody detected with a cy3-conjugated anti-rabbit secondary antibody (Jackson Immunoresearch). For IHC, formalin-fixed, paraffin-embedded specimens were collected. 5-μm-thick paraffin-embedded sections were stained using an anti-Ki-67 (MIB-1, DakoCytomation) antibody with the Dako ARK kit (Dako Corporation). Tissues were counterstained with haematoxylin, dehydrated, and mounted. In all cases, antigen retrieval was performed with the Dako Target Retrieval Kit as per manufacturer's instructions. For TUNEL assay, formalin-fixed, paraffin-embedded sections were stained using an in situ cell death detection kit (POD; Roche Diagnostic) according to the manufacturer's instructions.
Ultrathin sections were stained with uranyl acetate and lead citrate. Numbers of AV were counted on systematically sampled cytoplasmic areas of 4.5 μm^2 (n≧64 per condition). The percent AV area was measured by means of a square mesh grid laid over ≧5 sets of systematically sampled micrographs with each set covering a cytoplasmic area ≧80 μm^2. The average percent of apoptotic nuclei in tumor tissues was calculated from the number of apoptotic nuclei in 3 to 4 sets of 100 systematically counted tumor cell nuclei.
Multispectral imaging flow cytometry: Cells treated with various agents were stained with Acridine Orange and analyzed by the ImageStream system (Amnis Corporation, Seattle, Wash.) using the IDEAS image analysis program. The DNA AOGreen image and the vacuolar AO Red image were first compensated into separate channels, and then the percentage of apoptotic/anucleate cells (based on AO nuclear morphology and intensity) and vacuolated cells (AO Red+) were quantified. […] AORed Intensity is plotted on the second histogram with an arbitrary gate (R5) drawn to include events with the brightest AO Red intensity.

PC3 cells [4] = experiment: Immunoblot of LAMP1, cathepsin D and p62 in PC3 cells; assay type: cell-based, human
From the text: as §3, with “nitrocellulose. Antibodies used were: anti-Akt1, anti-Akt2, anti-Akt3, anti-total-Akt, anti-p-Akt (Ser473), anti-p-Akt (Thr308), anti-p-S6 (Ser235/236), anti-PARP and anti-cleaved caspase-3 (Cell Signaling Technology); anti-p-PRAS40 (Invitrogen); anti-p27^Kip1 (Santa Cruz Biotechnology); anti-LC3 (Novus); anti-LAMP2 and anti-Cathepsin D (BD Biosciences); and anti-GAPDH (Advanced Immunochemical Inc.).” for “nitrocellulose.”
Because autophagy is a key function of the lysosomal compartment (Terman, A., B. Gustafsson, and U. T. Brunk, (2006), The lysosomal-mitochondrial axis theory of postmitotic aging and cell death. Chem Biol Interact. 163:29-37), we examined the lysosomal marker LAMPI and cathepsin D, the predominant lysosomal aspartic protease, by immunoblotting (FIG. 6, B and C). […] Cathepsin D is synthesized as a 43-kD preprocathepsin D that is cleaved cotranslationally and glycosylated to form a 46-kD procathepsin D, which is targeted to lysosomes yielding an intermediate that is further cleaved into a mature enzyme consisting of a 15-kD light chain and a 28-kD heavy chain.

PC3 cells [5] = experiment: Mitochondrial membrane potential (MitoPT dye) in PC3 cells; assay type: cell-based, human; settings: 0.5% FBS
Experimental: FIG. 21. […] Images at 48 h are shown. […] Merged images between red and green channels are also shown (MitoPT-M). Scale bar: 20 μm. (B) Percentage of cells showing red punctate stains and diffuse green stains from treatments described in (A). >86 cells from two random fields of fluorescent images of each treatment were counted. Error bars represent standard deviations between the two fields. […] Total fluorescence intensity from all cells was collected using the Isocyte (Blueshift Biotechnologies), a laser scanning imager. Green fluorescence intensity is collected with a 488 nm laser and a 510-540 nm band pass filter, and normalized to cell number determined by Hoechst staining using a 405 nm laser and a 430-480 nm band pass filter. Error bars, standard deviation between two independent experiments. (D) Representative images of the green ROS signals and bright field (BF) taken under a Nikon TE300 inverted microscope. […] Scale bar: 20 μm.
Cell Culture and Reagents: The PTEN^−/− and PTEN^+/+ MEFs were maintained as previously described (Sun, H., R. Lesche, D. M. Li, J. Liliental, H. Zhang, J. Gao, N. Gavrilova, B. Mueller, X. Liu, and H. Wu, (1999), PTEN modulates cell cycle progression and cell survival by regulating phosphatidylinositol 3,4,5,-trisphosphate and Akt/protein kinase B signaling pathway. Proc Natl Acad Sci USA. 96:6199-204). The PC3 and U87MG cells were maintained at 37° C. and 5% CO2 in DMEM/Ham's F-12 (1:1) containing 10% tetracycline-free fetal bovine serum. II-4 was from Calbiochem (Akt inhibitor VIII) (Barnett, S. F., D. Defeo-Jones, S. Fu, P. J. Hancock, K. M. Haskell, R. E. Jones, J. A. Kahana, A. M. Kral, K. Leander, L. L. Lee, J. Malinowski, E. M. McAvoy, D. D. Nahas, R. G. Robinson, and H. E. Huber, (2005), Identification and characterization of pleckstrin-homology-domain-dependent and isoenzyme-specific Akt inhibitors. Biochem J. 385:399-408). […] Image-iT LIVE Green Reactive Oxygen Species Detection Kit was purchased from Molecular Probes. MitoPT Mitochondria Permeability Transition Detection Kit was purchased from Immunochemistry Technologies, LLC.

PC3 cells [6] = experiment: Time-lapse microscopy of PC3 cells; assay type: cell-based, human; settings: 10 μM, 5% FBS, 3 d
Experimental: Time-lapse video microscopy: Cells cultured in 24-well plates were imaged on an Olympus IX81 inverted microscope under environmental control (37° C. and 5% CO2) for 3 days. Imaging started 6 hours after the addition of the compounds and was taken at 1-hour intervals.

PC3 xenograft tumors = experiment: PC3 xenograft tumor growth; assay type: in vivo, mice
Experimental: Xenograft study: Six- to 8-week-old female athymic nude nu/nu mice were purchased from Charles River Laboratories and maintained in Genentech's conventional animal facility. Mice were injected in the right flank with 5˜7.5×10^6 cells resuspended in 200 μl Hank's Balanced Salt Solution (Invitrogen). When tumors reached a mean volume of 100˜300 mm^3 the mice with similarly-sized tumors were grouped into treatment cohorts. […] Amber-colored water bottles were used and were changed 3 times per week. […] Tumors were measured with calipers and mice weighed twice per week. Mice whose tumors reached 2000 mm^3 or lost more than 20% body weight were euthanized. Between 8˜10 mice were used for each treatment group. Statistical significance was analyzed using the JMP software (SAS Institute, Inc.).
We next examined the effect of Akt KDs on the ability of PC3 cells to maintain the growth of established tumors in vivo.

PC3 cells [7] = experiment: Mitochondrial superoxide (MitoSOX red) and cellular ROS in PC3 cells; assay type: cell-based, human
Experimental: (B) PC3 cells treated as in A were stained with the Image-iT LIVE green ROS Detection kit and examined by fluorescence microscopy at 24 h. […] (C) Quantification of MitoSOX red and ROS green fluorescence intensities by flow cytometry at 24 h. Cells were treated as in A and B. Error bars represent SEM (n=3).
Because mitochondria are the primary intracellular source of superoxide (O2^−) generation, we analyzed O2^− production using MitoSOX red, an O2^− indicator that accumulates in the mitochondria as a function of membrane potential and fluoresces upon oxidation and subsequent binding to DNA.

[8] = Autophagic vacuole accumulation by side scatter (SSC) in a flow cytometer; assay type: cell-based
From the text: Inhibitors include 3-phenyl-2-(4-((4-(5-(pyridin-2-yl)-1H-1,2,4-triazol-3-yl)piperidin-1-yl)methyl)phenyl)-1,6-naphthyridin-5(6H)-one (II-3), benzyl 2-(4-(3-ethylureido)phenyl)-4-(1,4-oxazepan-4-yl)-5H-pyrrolo[3,4-d]pyrimidine-6(7H)-carboxylate (III-1); 1-ethyl-3-(4-(4-morpholino-7-(pyrimidin-2-yl)-5,6,7,8-tetrahydropyrido[3,4-d]pyrimidin-2-yl)phenyl)urea (III-2), (R)-1-(44(2-(2-aminopyrimidin-5-yl)-7-methyl-4-morpholinothieno[3,2-d]pyrimidin-6-yl)methyl)piperazin-1-yl)-2-hydroxypropan-1-one (III-3), 4-(2-(1H-indazol-4-yl)-6-((4-(methylsulfonyl)piperazin-1-yl)methyl)thieno[3,2-d]pyrimidin-4-yl)morpholine (III-6), (S)—N-(4-(benzo[d][1,3]dioxol-5-yl)thiazol-2-yl)-N-(3-(2-formylpiperidin-1-yl)propyl)thiophene-2-carboxamide (IV-2) and Rapamycin.
FIG. 14 depicts CQ (10 μM) increases the number and size of autophagic vacuoles when combined with the various mTOR, PI3K, and Akt inhibitors.

[9] = Cell death in combination with CQ (FIG. 17); assay type: cell-based
[10] = 24 hrs, Acridine Orange staining

## O=C(NOC[C@H](O)CO)c1ccc(F)c(F)c1Nc1ccc(I)cc1F [VII, (R)—N-(2,3-dihydroxypropoxy)-3,4-difluoro-2-(2-fluoro-4-iodophenylamino)benzamide]
[1]; 10 μM CQ, AnnV and PI staining
  apoptosis induction when combined with CQ: no synergistic apoptosis induction is shown when combined with CQ; also recorded: CQ does not induce apoptosis in cancer cells
[1]; [10]
  autophagy induction: does not induce an increase in autophagy
[2]; 10 μM CQ, AnnV and PI staining
  apoptosis induction when combined with CQ: no synergistic apoptosis induction is shown when combined with CQ; also recorded: CQ does not induce apoptosis in cancer cells
[2]; [10]
  autophagy induction: does not induce an increase in autophagy

## CCN(CC)CCCC(C)Nc1ccnc2cc(Cl)ccc12 (stereo not shown) [CQ, chloroquine]
PC3 cells [3]
  AVO accumulation, agent alone (multispectral imaging flow cytometry): induced AVO accumulation without significant loss of viability
  induction of AV accumulation / autophagy, agent alone: induced accumulation of AVs
PC3 cells [4]
  p62 level: increased the level of p62 both with and without Akti; also recorded: blocked p62 degradation both with and without II-4 treatment
PC3 cells [5]
  mitochondrial membrane potential, agent alone: did not have a significant effect
PC3 cells [6]
  cell division and morphology, agent alone: mild decrease in cell division and a gradual accumulation of dark particles in the perinuclear region
PC3 xenograft tumors; PC3-shAkt123 xenograft, both Dox and CQ
  tumors with stasis maintained throughout the study: 20%
PC3 xenograft tumors; PC3-shAkt123 xenograft, both Dox and CQ, intraperitoneal
  tumors with complete regression: 40%
PC3 xenograft tumors; mouse, in vivo
  incidence of complete tumor remission, CQ combined with Akt knockdown: significantly increased the incidence of complete tumor remission; also recorded: increased the incidence of complete tumor remissions in vivo
PC3 cells [7]
  MitoSOX fluorescence, agent alone: mild increase in MitoSOX signal
  cellular ROS signal, agent alone: little effect on ROS levels

## CS(=O)(=O)N1CCN(Cc2cc3nc(-c4cccc5[nH]ncc45)nc(N4CCOCC4)c3s2)CC1 [III-6, 4-(2-(1H-indazol-4-yl)-6-((4-(methylsulfonyl)piperazin-1-yl)methyl)thieno[3,2-d]pyrimidin-4-yl)morpholine]
[8]
  autophagic vacuole accumulation (SSC), inhibitor alone: induce increased autophagic vacuole accumulation
[9]
  interaction with CQ on cell death: synergize with CQ to accelerate cell death
